The structures appear in SMILES notation.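 Dose response: 5 concentrations. Exposure: 48 h. Format: 96-well plates. Endpoint: linear interpolation; highest concentration if not reached. GI50 = concentration required for 50% inhibition of growth. TGI marks complete inhibition of growth.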 Bounds are passed on as bounds.

This passage reports TGI and GI50 results from PubChem BioAssay (NCI).

Some test systems named below: NCI-H522 lung; CCRF-CEM leukemia; SK-OV-3 ovarian; SNB-19 CNS; 786-0 renal; UACC-62 melanoma; SNB-75 CNS; RPMI-8226 leukemia.
Assay in all cases: growth of human tumour cells (NCI), 48 h

Consider `CCCCCCCCCCCCNC(=S)OC`, for which the TGI with NCI-H522 lung was determined as 26 µM; with CCRF-CEM leukemia it was 33.3 µM; in the assay on SK-OV-3 ovarian, 35 µM; in the assay with SNB-19 CNS, 69.8 µM; in the assay with 786-0 renal, 29.3 µM; in the assay on UACC-62 melanoma, 30.7 µM. Besides, the TGI in the assay with SNB-75 CNS is 45 µM; in the assay on RPMI-8226 leukemia, 27.5 µM.
Regarding `O=c1c2cccnc2ncn1CCN1CCCCC1`, the TGI with NCI-H522 lung, in the assay on CCRF-CEM leukemia, in the assay on SK-OV-3 ovarian, in the assay with SNB-19 CNS, in the assay on 786-0 renal and in the assay with UACC-62 melanoma was above 100 µM throughout. This compound also gave a TGI in the assay with SNB-75 CNS above 100 µM.
Turning to `COc1cc2c(cc1O)[C@H](C)C(c1ccc(OC)c(OC)c1)O2` (stereo partly drawn), the TGI with NCI-H522 lung is 30.8 µM; in the assay with CCRF-CEM leukemia it was 25.6 µM; with SK-OV-3 ovarian, above 100 µM; in the assay on SNB-19 CNS, 65.3 µM; with 786-0 renal, 23.8 µM; in the assay on UACC-62 melanoma, 10.1 µM. For the same compound, in the assay with SNB-75 CNS, the TGI stood at 11.7 µM.
`N#CCCC[Si]12OCCN(CCO1)CCO2`: the TGI with NCI-H522 lung, with CCRF-CEM leukemia, in the assay on SK-OV-3 ovarian, in the assay on SNB-19 CNS, with 786-0 renal and in the assay with UACC-62 melanoma was above 100 µM in each case. The TGI with SNB-75 CNS and in the assay on RPMI-8226 leukemia was above 100 µM throughout.
Take `CN(C)CC1CCC/C1=N/OC(=O)c1ccccc1` (stereo not drawn): the TGI in the assay with NCI-H522 lung, in the assay with CCRF-CEM leukemia, with SK-OV-3 ovarian, in the assay on 786-0 renal, with UACC-62 melanoma and in the assay on SNB-75 CNS was above 100 µM each time. In the assay on RPMI-8226 leukemia, this compound returned a TGI above 100 µM.
Turning to `O=S1C(=c2ccc(=C3Sc4ccccc4S3)cc2)Sc2ccccc21` (stereo not drawn), the TGI with NCI-H522 lung was above 100 µM; in the assay with CCRF-CEM leukemia, above 100 µM; in the assay on SK-OV-3 ovarian, 37 µM; in the assay on SNB-19 CNS, 30.7 µM; with 786-0 renal, 30.8 µM; in the assay with UACC-62 melanoma, 35.2 µM. For the same compound, the TGI is 35.8 µM in the assay on SNB-75 CNS and above 100 µM in the assay on RPMI-8226 leukemia.
Regarding `S=P1(Oc2ccccc2)NNP2(=NP(N3CC3)(N3CC3)=NP(N3CC3)(N3CC3)=N2)NN1` (stereo not drawn), the TGI in the assay on NCI-H522 lung, with CCRF-CEM leukemia, in the assay on SK-OV-3 ovarian, with SNB-19 CNS, with 786-0 renal and in the assay on UACC-62 melanoma was above 100 µM in each case. The TGI in the assay with SNB-75 CNS and with RPMI-8226 leukemia was above 100 µM in each case.
As to `CCOC(=O)/C(=C/c1ccc(OC)cc1)N(CC)CC`, the TGI with NCI-H522 lung, in the assay with CCRF-CEM leukemia, in the assay with SK-OV-3 ovarian, with SNB-19 CNS, in the assay on 786-0 renal and in the assay with UACC-62 melanoma was above 100 µM each time. In addition, the TGI in the assay with RPMI-8226 leukemia was above 100 µM.
On to `O=C(/C=C/c1c(O)ccc2ccccc12)c1ccc([N+](=O)[O-])cc1`, for which the TGI with NCI-H522 lung was 31.2 µM; in the assay with CCRF-CEM leukemia it was above 75.8 µM; in the assay with SK-OV-3 ovarian, above 100 µM; with SNB-19 CNS it was above 100 µM; in the assay with 786-0 renal, above 55.6 µM; in the assay with UACC-62 melanoma, 33.3 µM. Further, the TGI with SNB-75 CNS and in the assay on RPMI-8226 leukemia was above 100 µM each time.
`O=C1C(C(Nc2ccccc2)c2ccccc2)=C([O-])c2ccccc21.O=C1C(C(Nc2ccccc2)c2ccccc2)=C([O-])c2ccccc21.[Cu+2]` (stereo not drawn): the GI50 is 23.7 µM in the assay with NCI-H522 lung; 8.38 µM with SK-OV-3 ovarian; above 100 µM in the assay on SNB-19 CNS; 48.3 µM in the assay on 786-0 renal; 50.6 µM in the assay with UACC-62 melanoma; 17.2 µM with SNB-75 CNS. Also, in the assay with RPMI-8226 leukemia, the GI50 is 24.8 µM. In addition, the TGI with NCI-H522 lung is 73.6 µM; in the assay with SK-OV-3 ovarian, 63 µM; in the assay on SNB-19 CNS, above 100 µM; in the assay on 786-0 renal, above 100 µM; with UACC-62 melanoma, above 100 µM; in the assay on SNB-75 CNS, 92.1 µM. The compound further displayed a TGI in the assay with RPMI-8226 leukemia above 100 µM.
On to `CC(=O)OCCOCNC(=S)N/N=C/c1ccc([N+](=O)[O-])o1`, for which the TGI with NCI-H522 lung, in the assay with CCRF-CEM leukemia, in the assay with SK-OV-3 ovarian, with SNB-19 CNS, in the assay with 786-0 renal and in the assay with UACC-62 melanoma was above 100 µM throughout. In the assay on SNB-75 CNS, this compound returned a TGI above 100 µM.
As to `COCCOCOC(CCCCO)c1cc(C)c(O[Si](C)(C)C(C)(C)C)c(C)c1` (stereo not drawn), the TGI was 6 µM in the assay with NCI-H522 lung; 18.1 µM with CCRF-CEM leukemia; 31.8 µM in the assay on SK-OV-3 ovarian; 19.2 µM with SNB-19 CNS; 24.4 µM with 786-0 renal; 25.4 µM with UACC-62 melanoma. Besides, the TGI with SNB-75 CNS worked out at 23.9 µM; in the assay on RPMI-8226 leukemia, 11.6 µM.
Consider `CNC(=O)NCCCC(NC(C)=O)C(=O)NCc1ccccc1` (stereo not drawn), for which the TGI in the assay on NCI-H522 lung, in the assay on CCRF-CEM leukemia, in the assay with SK-OV-3 ovarian, in the assay with SNB-19 CNS, in the assay with 786-0 renal and in the assay with UACC-62 melanoma was above 100 µM each time. For the same compound, the TGI in the assay with SNB-75 CNS and in the assay on RPMI-8226 leukemia was above 100 µM each time.
As to `Cc1ccc(S(=O)(=O)N2CCC2c2ccccc2)cc1` (stereo not drawn), the TGI with NCI-H522 lung, in the assay on CCRF-CEM leukemia, in the assay on SK-OV-3 ovarian, in the assay with SNB-19 CNS, in the assay on 786-0 renal and in the assay on UACC-62 melanoma was above 100 µM throughout. Besides, the TGI in the assay with SNB-75 CNS and in the assay on RPMI-8226 leukemia was above 100 µM each time.
In the case of `CC1(C)CC(c2c[nH]c3ccccc23)=CC2=Nc3ccccc3C21O` (stereo not drawn), the TGI in the assay with NCI-H522 lung, with CCRF-CEM leukemia, with SK-OV-3 ovarian, in the assay with SNB-19 CNS, in the assay on 786-0 renal and with UACC-62 melanoma was above 100 µM in each case. Besides, the TGI with SNB-75 CNS is 25.4 µM; in the assay with RPMI-8226 leukemia it was above 100 µM.
`C[C@@]1(O)CC[C@]2(C)C3CCCC3[C@H]12` (stereo partly drawn): the TGI in the assay with NCI-H522 lung, in the assay on CCRF-CEM leukemia, in the assay with SK-OV-3 ovarian, in the assay with SNB-19 CNS, in the assay with 786-0 renal and in the assay on UACC-62 melanoma was above 100 µM throughout. Further, the TGI in the assay with SNB-75 CNS and in the assay with RPMI-8226 leukemia was above 100 µM throughout.
Regarding `CN(C)CC1CCCC/C1=N/O` (stereo not drawn), the TGI in the assay on NCI-H522 lung, with CCRF-CEM leukemia, in the assay on SK-OV-3 ovarian, in the assay on 786-0 renal, in the assay with UACC-62 melanoma and in the assay with SNB-75 CNS was above 100 µM throughout. In the assay on RPMI-8226 leukemia, this compound showed a TGI above 100 µM.
For the compound `N#CC(C(=O)CCC(=O)Nc1ccc(Cl)c(Cl)c1)c1ccccc1` (stereo not drawn), the TGI with SNB-19 CNS, with 786-0 renal, with UACC-62 melanoma, in the assay on SNB-75 CNS and in the assay on RPMI-8226 leukemia was above 100 µM throughout.
As to `CCCC/C=C/C=C/C=C/CCCCCCCC(=O)OCC(COC(=O)CCCCCCC/C=C/C1C=CC(CCCC)C(C(=O)O)C1C(=O)O)OC(=O)CCCCCCC/C=C/C=C/C=C/CCCC` (stereo not drawn) (tested in a mixture with another compound), the TGI with CCRF-CEM leukemia came to 34.2 µM; in the assay with SK-OV-3 ovarian it was 44.6 µM; in the assay with SNB-19 CNS, 46.1 µM; with 786-0 renal it was 31.7 µM; with UACC-62 melanoma, 29.1 µM; with SNB-75 CNS it was 36.7 µM. Also, the TGI with RPMI-8226 leukemia came to 15 µM.
Consider `O=C(NC1C=CCC2C(=O)N(c3ccccc3)C(=O)C12)OCc1ccccc1` (stereo not drawn), for which the TGI in the assay on NCI-H522 lung, with CCRF-CEM leukemia, in the assay with SK-OV-3 ovarian, with SNB-19 CNS, with 786-0 renal and with UACC-62 melanoma was above 100 µM each time. For the same compound, the TGI in the assay on SNB-75 CNS and with RPMI-8226 leukemia was above 100 µM in each case.
Consider `CN(C)C(=S)/N=c1\ssc(=S)n1C1CCCCC1`, for which the TGI is 37.4 µM in the assay on NCI-H522 lung; 46.1 µM with CCRF-CEM leukemia; above 100 µM in the assay on SK-OV-3 ovarian; above 100 µM with SNB-19 CNS; 31.6 µM in the assay with 786-0 renal; 34.2 µM with UACC-62 melanoma. In addition, the TGI with SNB-75 CNS is above 100 µM.
With `O=C(O)CSc1n[nH]c(-c2ccccc2O)n1`, the TGI in the assay on CCRF-CEM leukemia, in the assay on SNB-19 CNS, with 786-0 renal, in the assay on UACC-62 melanoma, with SNB-75 CNS and in the assay with RPMI-8226 leukemia was above 100 µM each time.
Regarding `CCOC(=O)C1Sc2ccccc2N=C1C` (stereo not drawn), the TGI with NCI-H522 lung, with SNB-19 CNS, in the assay with 786-0 renal, in the assay with SNB-75 CNS and in the assay with RPMI-8226 leukemia was above 100 µM in each case.
For the compound `CN(C)C=Nc1nc(=O)n(C2CCC(CO)O2)cc1F` (stereo not drawn), the TGI in the assay on NCI-H522 lung, with CCRF-CEM leukemia, in the assay with SK-OV-3 ovarian, in the assay with SNB-19 CNS, in the assay on 786-0 renal and in the assay with SNB-75 CNS was above 100 µM throughout. For the same compound, the TGI in the assay with RPMI-8226 leukemia is above 100 µM.
Consider `Cc1nc(-c2nc(C)c(C(=O)NNC(=O)C[n+]3ccccc3)s2)sc1C(=O)NNC(=O)C[n+]1ccccc1`, for which the TGI was above 100 µM in the assay with CCRF-CEM leukemia; above 100 µM in the assay on SK-OV-3 ovarian; above 100 µM with SNB-19 CNS; above 100 µM with 786-0 renal; above 100 µM with UACC-62 melanoma; 84.3 µM in the assay on SNB-75 CNS. The compound further had a TGI with RPMI-8226 leukemia above 100 µM.
